Laboratory results reported in patent publication US20110028472A1, “THIENOPYRIMIDINES” (MERCK PATENT CESELLSCHAFT MIT BESCHRANKTER HAFTUNG, priority 2008, published 2011).

Target: T1, GST-ALK5 (Homo sapiens, UniProt P36897)
T1 sequence (P36897 34-503): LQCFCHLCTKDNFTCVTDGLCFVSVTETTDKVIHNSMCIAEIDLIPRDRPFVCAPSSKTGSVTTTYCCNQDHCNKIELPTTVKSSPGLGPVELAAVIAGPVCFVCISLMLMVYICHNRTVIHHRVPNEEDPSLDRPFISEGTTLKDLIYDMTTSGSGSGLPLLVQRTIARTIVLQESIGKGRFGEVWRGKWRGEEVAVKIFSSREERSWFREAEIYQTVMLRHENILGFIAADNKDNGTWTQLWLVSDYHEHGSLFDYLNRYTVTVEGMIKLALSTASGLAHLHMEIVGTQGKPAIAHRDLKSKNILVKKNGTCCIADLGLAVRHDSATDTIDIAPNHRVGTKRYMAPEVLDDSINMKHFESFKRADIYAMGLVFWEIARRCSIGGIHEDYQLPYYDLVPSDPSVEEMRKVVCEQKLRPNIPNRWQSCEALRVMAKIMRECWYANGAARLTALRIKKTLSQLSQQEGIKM
Experiment: In-vitro (enzyme) kinase assay, 384-well flashplate, inhibition of TGF-beta receptor I kinase
Format: biochemical
Settings: 31.2 nM GST-ALK5, 439 nM GST-SMAD2, 3 mM ATP (33P-ATP), 30° C., 45 min
Method: In-Vitro (Enzyme) Assay for the Determination of the Efficacy of Inhibitors of the Inhibition of TGF-Beta-Promoted Effects Vermittelten Wirkungen
The kinase assay is carried out as 384-well flashplate assay. 31.2 nM of GST-ALK5, 439 nM of GST-SMAD2 and 3 mM of ATP (with 0.3 μCi of ^33P-ATP/well) are incubated in a total volume of 35 μl (20 mM of HEPES, 10 mM of MgCl, 5 mM of MnCl, 1 mM of DTT, 0.1% of BSA, pH 7.4) without or with test substance (5-10 concentrations) at 30° C. for 45 min. The reaction is stopped using 25 μl of 200 mM EDTA solution, filtered with suction at room temperature after 30 min, and the wells are washed with 3 times 100 μl of 0.9% NaCl solution. Radioactivity is measured in the TopCount. The IC50 values are calculated using RS1.

Row | Structure (SMILES) | IC50
1 | Cc1ccc(-c2nc(C3CC3)nc3sc(C(N)=O)c(N)c23)o1 [Compound A1, 5-amino-2-cyclopropyl-4-(5-methylfuran-2-yl)-thieno[2,3-d]pyrimidine-6-carboxamide] | 48 nM
2 | CSc1nc(-c2ccco2)c2c(N)c(C(N)=O)sc2n1 [Compound A8, 5-amino-4-furan-2-yl-2-methylsulfanylthieno[2,3-d]pyrimidine-6-carboxamide] | 97 nM
3 | CC(C)(C)c1nc(-c2ccco2)c2c(N)c(C(N)=O)sc2n1 [Compound A25, 5-amino-2-tert-butyl-4-furan-2-ylthieno[2,3-d]pyrimidine-6-carboxamide] | 87 nM
4 | Cc1ccc(-c2nc(C(C)(C)C)nc3sc(C(N)=O)c(N)c23)o1 [Compound A26, 5-amino-2-tert-butyl-4-(5-methylfuran-2-yl)thieno[2,3-d]pyrimidine-6-carboxamide] | 77 nM
5 | C#CCNc1nc(-c2cccc(C)n2)c2c(N)c(C(N)=O)sc2n1 [Compound A52, 5-amino-4-(6-methylpyridin-2-yl)-2-prop-2-ynylaminothieno[2,3-d]pyrimidine-6-carboxamide] | 54 nM
6 | Cc1cccc(-c2nc(NCCC#N)nc3sc(C(N)=O)c(N)c23)n1 [Compound A56, 5-amino-2-(2-cyanoethylamino)-4-(6-methylpyridin-2-yl)thieno[2,3-d]-pyrimidine-6-carboxamide] | 79 nM

The remaining lines, values ahead:

Row | IC50 | Structure (SMILES)
7 | 46 nM | CSc1nc(-c2ccc(C)o2)c2c(N)c(C(N)=O)sc2n1 [Compound A10, 5-Amino-4-(5-methylfuran-2-yl)-2-methyl-sulfanylthieno[2,3-d]pyrimidine-6-carboxamide]
8 | 36 nM | CNc1nc(-c2ccc(C)o2)c2c(N)c(C(N)=O)sc2n1 [Compound A34, 5-amino-2-methylamino-4-(5-methylfuran-2-yl)thieno[2,3-d]pyrimidine-6-carboxamide]
9 | 67 nM | C=CCNc1nc(-c2ccc(C)o2)c2c(N)c(C(N)=O)sc2n1 [Compound A42, 2-allylamino-5-amino-4-(5-methylfuran-2-yl)-thieno[2,3-d]pyrimidine-6-carboxamide]
10 | 22 nM | C=CCNc1nc(-c2cccc(C)n2)c2c(N)c(C(N)=O)sc2n1 [Compound A50, 2-allylamino-5-amino-4-(6-methylpyridin-2-yl)thieno[2,3-d]pyrimidine-6-carboxamide]
